From ChEMBL document CHEMBL1201862, “PubChem BioAssay data set” (2004)
The source made the active and inactive calls.

Tests used:
Streptococcus = assay: GAS UMAA2166 growth inhibition – luminescence, BacTiterGlo, counter-screen for streptokinase expression inhibitor project, dose response (AID 1915); assay type: functional, organism-based;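 note: potency for reduction of bacterial viability or growth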
[1] = target: T1, DNA repair protein RAD52 homolog (Homo sapiens, UniProt P43351); assay type: functional, biochemical
T1 sequence (P43351 whole entry): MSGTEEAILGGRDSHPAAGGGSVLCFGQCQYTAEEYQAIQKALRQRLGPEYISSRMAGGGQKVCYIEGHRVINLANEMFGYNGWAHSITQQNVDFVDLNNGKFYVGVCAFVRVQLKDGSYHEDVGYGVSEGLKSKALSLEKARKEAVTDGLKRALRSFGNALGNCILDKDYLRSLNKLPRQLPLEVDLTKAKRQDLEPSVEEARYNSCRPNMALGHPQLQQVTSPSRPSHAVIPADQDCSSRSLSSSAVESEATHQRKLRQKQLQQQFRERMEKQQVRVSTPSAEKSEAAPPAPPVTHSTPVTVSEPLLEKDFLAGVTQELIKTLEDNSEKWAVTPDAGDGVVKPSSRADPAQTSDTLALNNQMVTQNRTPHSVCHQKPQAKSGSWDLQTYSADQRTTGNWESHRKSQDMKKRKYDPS

[2] = target: T2, Ubiquitin-conjugating enzyme E2 N (Homo sapiens, UniProt P61088); assay type: functional;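 note: Dose-response confirmation in a TR-FRET assay detecting UBC13-driven polyubiquitin chain formation, inhibition measured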
T2 sequence (P61088 whole entry): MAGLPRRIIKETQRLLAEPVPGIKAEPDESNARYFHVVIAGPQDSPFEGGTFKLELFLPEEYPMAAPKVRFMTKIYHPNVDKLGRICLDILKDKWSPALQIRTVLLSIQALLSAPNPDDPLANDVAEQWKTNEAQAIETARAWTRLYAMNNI

Protein RecA = target: T3, Protein RecA (Mycobacterium tuberculosis, UniProt P9WHJ3); assay: Fluorescence Cell-Free Homogeneous Dose Retest to Identify Inhibitors of RecA-Intein Splicing Activity. [Related pubchem assays (depositor defined):AID2097, AID2223, AID489010, AID492950]; assay type: functional
T3 sequence (P9WHJ3 whole entry): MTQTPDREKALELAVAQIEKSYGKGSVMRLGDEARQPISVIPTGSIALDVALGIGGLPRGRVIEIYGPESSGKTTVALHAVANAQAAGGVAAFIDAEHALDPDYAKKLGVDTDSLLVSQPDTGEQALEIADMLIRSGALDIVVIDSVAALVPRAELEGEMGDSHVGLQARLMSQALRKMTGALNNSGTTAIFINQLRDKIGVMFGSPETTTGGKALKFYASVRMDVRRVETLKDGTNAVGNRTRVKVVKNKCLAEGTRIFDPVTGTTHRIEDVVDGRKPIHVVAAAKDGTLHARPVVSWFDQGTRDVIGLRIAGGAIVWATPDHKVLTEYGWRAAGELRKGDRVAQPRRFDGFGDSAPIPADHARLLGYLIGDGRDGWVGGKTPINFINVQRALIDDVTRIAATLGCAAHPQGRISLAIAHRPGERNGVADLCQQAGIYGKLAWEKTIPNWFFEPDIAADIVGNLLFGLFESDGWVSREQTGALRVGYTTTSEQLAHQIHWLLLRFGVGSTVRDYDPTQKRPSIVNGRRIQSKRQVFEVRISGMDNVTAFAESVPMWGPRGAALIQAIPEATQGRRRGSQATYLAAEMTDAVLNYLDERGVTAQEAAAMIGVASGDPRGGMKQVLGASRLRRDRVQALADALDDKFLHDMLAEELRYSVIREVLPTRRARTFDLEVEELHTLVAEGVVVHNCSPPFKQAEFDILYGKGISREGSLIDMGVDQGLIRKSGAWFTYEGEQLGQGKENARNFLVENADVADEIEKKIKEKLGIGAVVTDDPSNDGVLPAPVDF

[3] = target: T4, Replicative DNA helicase DnaB (Mycobacterium tuberculosis, UniProt P9WMR3); assay: DnaB intein splicing inhibitors, dose response, biochemical, cell-free fluorescence (AID 449749); assay type: functional
T4 sequence (P9WMR3 whole entry): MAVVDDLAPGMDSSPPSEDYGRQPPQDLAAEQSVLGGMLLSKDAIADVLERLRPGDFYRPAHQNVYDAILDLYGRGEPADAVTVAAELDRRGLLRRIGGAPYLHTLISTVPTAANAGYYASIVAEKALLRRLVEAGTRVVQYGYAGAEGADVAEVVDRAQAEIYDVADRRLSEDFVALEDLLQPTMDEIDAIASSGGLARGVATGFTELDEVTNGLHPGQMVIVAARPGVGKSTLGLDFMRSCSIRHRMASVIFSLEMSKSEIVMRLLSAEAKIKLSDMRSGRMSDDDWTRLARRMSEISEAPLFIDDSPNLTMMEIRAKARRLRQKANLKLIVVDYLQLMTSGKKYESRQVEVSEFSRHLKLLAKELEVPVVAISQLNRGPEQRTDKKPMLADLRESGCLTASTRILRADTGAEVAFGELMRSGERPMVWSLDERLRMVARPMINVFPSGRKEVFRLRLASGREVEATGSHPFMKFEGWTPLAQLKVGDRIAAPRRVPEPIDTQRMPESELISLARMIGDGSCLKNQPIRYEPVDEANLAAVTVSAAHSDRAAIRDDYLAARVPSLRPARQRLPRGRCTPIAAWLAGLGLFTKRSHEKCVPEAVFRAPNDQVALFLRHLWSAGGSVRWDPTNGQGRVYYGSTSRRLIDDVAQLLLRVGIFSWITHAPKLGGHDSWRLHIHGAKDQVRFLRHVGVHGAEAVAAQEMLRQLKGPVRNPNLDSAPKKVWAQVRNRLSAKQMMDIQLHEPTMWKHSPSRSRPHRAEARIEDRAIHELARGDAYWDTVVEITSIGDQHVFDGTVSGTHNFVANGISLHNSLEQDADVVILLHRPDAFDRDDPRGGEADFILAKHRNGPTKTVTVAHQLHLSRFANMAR

Bcl-2-like protein 10 = target: T5, Bcl-2-like protein 10 (Homo sapiens, UniProt Q9HD36); assay: Bcl-B/TR3 peptide binding disruption – biochemical, fluorescence polarization, FITC-TR3 peptide, selectivity assay for Bfl-1 inhibitor project, primary screen (AID 748);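 note: fluorescence polarization from a fluorescein-labelled TR3 peptide binding purified Bcl-B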
T5 sequence (Q9HD36 whole entry): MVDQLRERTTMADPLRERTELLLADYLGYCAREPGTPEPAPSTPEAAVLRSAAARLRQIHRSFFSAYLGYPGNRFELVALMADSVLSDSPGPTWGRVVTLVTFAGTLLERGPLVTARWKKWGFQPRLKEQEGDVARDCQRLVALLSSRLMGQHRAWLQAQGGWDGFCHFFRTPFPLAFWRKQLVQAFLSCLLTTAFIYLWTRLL

[4] = fluconazole-exposed Candida albicans growth modulators – fluorescence, retest, confirmation (AID 2467); assay type: functional, cell-based

| SMILES | EC50 (Streptococcus) | AC50 [1] | IC50 [2] | EC50 (Protein RecA) | AC50 [3] | IC50 (Bcl-2-like protein 10) | EC50 [4] |
| --- | --- | --- | --- | --- | --- | --- | --- |
| CCCCCCCCCCOC(=O)Cn1c(COc2ccccc2)[n+](C)c2ccccc21 | 7.89 µM (active) | 12.5 µM (active) | > 20 µM (inactive) | 9.4 µM (active) | 3.6 µM (active) | – | – |
| CCOC(=O)c1c(-c2ccc(-c3ccccc3)cc2)csc1NC(=O)CNCCN(C)C | – | 5.29 µM (active) | 11.4 µM (active) | – | – | – | – |
| CC(C)[n+]1ccn(C2=C([N-]S(=O)(=O)c3ccccc3)C(=O)c3ccccc3C2=O)c1 | – | – | – | 12 µM (active) | 12.3 µM (active) | – | – |
| COc1cc(-c2nnc(SCc3cc(=O)oc4cc(O)c(O)cc34)o2)cc(OC)c1OC | – | – | – | – | – | 0.493 µM (active) | > 38 µM (not active) |
